We go through eleven compounds from US20220387602A1, “BIFUNCTIONAL DEGRADERS AND THEIR METHODS OF USE” (NOVARTIS AG, priority 2019, published 2022).

What is called AC50 is the midpoint of the concentration-response curve, whichever way the signal moves. High values mean activity only at high concentration, low ones activity at low concentration. Broadly, the DC50 is the midpoint of the concentration-degradation curve. Low readings indicate a more potent degrader, high ones a less potent degrader.

One assay addresses CRBN (Homo sapiens, UniProt Q96SW2). Kind of assay: CRBN displacement assay Format 1 (fluorescence polarization, BodipyFL-lenalidomide probe Compound HH). The assay is classed as binding. In outline:
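Fluorescence polarization competition: CRBN (nominal 100 nM final) pre-incubated 45 min at room temperature with compound, then BodipyFL-lenalidomide probe added (5 nM final; 0.9% DMSO).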
A general note: In fluorescence polarisation assays a small probe gives low polarisation when free and higher when bound to something large.

In the next assay the target is T1, BTK (Homo sapiens, UniProt Q06187).
T1 construct: the BTK open reading frame (ORF) was first shuttled from a pcDNA-DEST40-BTK vector; expressed in transfected cells; host or cells: HEK293A (Invitrogen R70507), lentiviral transduction, blasticidin selection
The assay can be described thus: BTK-GFP protein abundance flow cytometry assay in HEK293A. The assay is classed as cell-based. The settings on record: 24 h; for BTK degradation Amax: % protein remaining at the concentration at which maximum degradation is seen, HEK293A; for DC50: concentration at which 50% maximal degradation was observed, HEK293A BTK-GFP sensor cells. In outline:
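HEK293A cells stably expressing bicistronic BTK-GFP-iresRFP were treated 24 h at 37° C with 10-point 1:3 dilutions from 10 μM, DMSO at 0.1%. GFP was read by flow cytometry as median of 5,000 single cells, scaled between RFP-only cells (0%) and DMSO controls (100%). DC50 = concentration at 50% degradation; Amax = % protein remaining at maximal degradation.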
Background: A flow cytometer gives signals particle by particle.

Each structure is given as a SMILES string.

T1 sequence (Q06187 whole entry): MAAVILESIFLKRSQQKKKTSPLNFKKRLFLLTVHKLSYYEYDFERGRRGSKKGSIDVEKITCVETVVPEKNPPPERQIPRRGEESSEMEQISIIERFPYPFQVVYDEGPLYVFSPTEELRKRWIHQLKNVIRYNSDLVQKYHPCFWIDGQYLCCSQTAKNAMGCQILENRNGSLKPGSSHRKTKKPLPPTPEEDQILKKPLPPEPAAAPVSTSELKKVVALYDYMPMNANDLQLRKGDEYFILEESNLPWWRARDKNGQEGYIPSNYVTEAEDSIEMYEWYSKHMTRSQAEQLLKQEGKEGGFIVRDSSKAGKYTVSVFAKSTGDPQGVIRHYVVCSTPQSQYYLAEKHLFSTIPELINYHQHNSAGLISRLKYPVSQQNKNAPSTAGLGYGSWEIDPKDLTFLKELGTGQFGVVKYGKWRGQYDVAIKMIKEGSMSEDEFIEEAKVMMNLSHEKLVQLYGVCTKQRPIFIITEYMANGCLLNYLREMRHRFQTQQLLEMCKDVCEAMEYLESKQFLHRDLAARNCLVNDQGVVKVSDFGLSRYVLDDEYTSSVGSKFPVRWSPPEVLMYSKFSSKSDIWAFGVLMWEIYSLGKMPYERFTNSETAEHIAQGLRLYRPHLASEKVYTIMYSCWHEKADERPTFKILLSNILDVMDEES
Chain of CRBN (Q96SW2 whole entry): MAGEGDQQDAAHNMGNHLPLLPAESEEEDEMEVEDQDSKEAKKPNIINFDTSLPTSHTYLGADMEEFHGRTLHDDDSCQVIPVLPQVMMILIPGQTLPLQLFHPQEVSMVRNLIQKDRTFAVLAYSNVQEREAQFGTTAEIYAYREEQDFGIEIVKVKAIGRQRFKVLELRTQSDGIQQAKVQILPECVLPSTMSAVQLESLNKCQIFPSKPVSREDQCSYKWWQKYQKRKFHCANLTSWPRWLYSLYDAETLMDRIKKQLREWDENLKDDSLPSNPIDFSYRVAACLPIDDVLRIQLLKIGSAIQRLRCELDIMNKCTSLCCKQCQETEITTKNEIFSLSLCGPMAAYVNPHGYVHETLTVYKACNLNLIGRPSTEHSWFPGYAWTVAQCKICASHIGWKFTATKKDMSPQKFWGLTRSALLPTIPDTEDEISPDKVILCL

Regarding `Cc1c(NC(=O)c2ccc(C(C)(C)O)cc2F)cc(F)cc1-c1ncnc2[nH]c(-c3ccc(CN(C)CCCNC(=O)COc4cccc(N5CCC(=O)NC5=O)c4)cc3)cc12` [Compound 12, N-(3-(6-(4-(((3-(2-(3-(2,4-dioxotetrahydropyrimidin-1(2H)-yl)phenoxy)acetamido)propyl)(methyl)amino)methyl)phenyl)-7H-pyrrolo[2,3-d]pyrimidin-4-yl)-5-fluoro-2-methylphenyl)-2-fluoro-4-(2-hydroxypropan-2-yl)benzamide], at CRBN, the activity was half-maximal at 7160 nM (AC50). Moreover, on BTK, the “BTK degradation Amax” value was found to be 2.3% and the DC50 is 10.7 nM.
The like results for `Cc1c(NC(=O)N2CC(O)(CC(C)(C)C)C2)cc(F)cc1-c1ncnc2[nH]c(-c3ccc(OCCCN4CCN(C(=O)COc5ccc(Cl)c(N6CCC(=O)NC6=O)c5)CC4)nc3)cc12` [Compound 13, N-(3-(6-(6-(3-(4-(2-(4-chloro-3-(2,4-dioxotetrahydropyrimidin-1(2H)-yl)phenoxy)acetyl)piperazin-1-yl)propoxy)pyridin-3-yl)-7H-pyrrolo[2,3-d]pyrimidin-4-yl)-5-fluoro-2-methylphenyl)-3-hydroxy-3-neopentylazetidine-1-carboxamide] were, in that order, 575 nM, 4.6% and 3.7 nM.
Regarding `Cc1c(NC(=O)c2ccc(C(C)(C)O)cc2F)cc(F)cc1-c1ncnc2[nH]c(-c3ccc(CNCCCCCCOc4cccc(N5CCC(=O)NC5=O)c4)cc3)cc12` [Compound 14, N-(3-(6-(4-(((6-(3-(2,4-Dioxotetrahydropyrimidin-1(2H)-yl)phenoxy)hexyl)amino)methyl)phenyl)-7H-pyrrolo[2,3-d]pyrimidin-4-yl)-5-fluoro-2-methylphenyl)-2-fluoro-4-(2-hydroxypropan-2-yl)benzamide], at CRBN, the AC50 was found to be 504 nM. Besides, at BTK, the “BTK degradation Amax” value is listed as 25.9% and the DC50 was determined as 25.9 nM.
For the compound `Cc1c(NC(=O)c2ccc(C(C)(C)O)cc2F)cc(F)cc1-c1ncnc2[nH]c(-c3ccc(CN4CCOC(CN(C)CCOc5cccc(N6CCC(=O)NC6=O)c5)C4)cc3)cc12` (stereo not drawn) [Compound 15, N-(3-(6-(4-((2-(((2-(3-(2,4-Dioxotetrahydropyrimidin-1(2H)-yl)phenoxy)ethyl)(methyl)amino)methyl)morpholino)methyl)phenyl)-7H-pyrrolo[2,3-d]pyrimidin-4-yl)-5-fluoro-2-methylphenyl)-2-fluoro-4-(2-hydroxypropan-2-yl)benzamide], the half-maximal activity concentration (AC50) on CRBN came to 4110 nM. Besides, at BTK, the “BTK degradation Amax” value is reported as 28.8% and the 50% degradation concentration (DC50) came to 21.7 nM.
Take `Cc1c(NC(=O)c2ccc(C(C)(C)O)cc2F)cc(F)cc1-c1ncnc2[nH]c(-c3ccc(CN(C)CCCCCCOc4cccc(N5CCC(=O)NC5=O)c4)cc3)cc12` [Compound 16, N-(3-(6-(4-(((6-(3-(2,4-Dioxotetrahydropyrimidin-1(2H)-yl)phenoxy)hexyl)(methyl)amino)methyl)phenyl)-7H-pyrrolo[2,3-d]pyrimidin-4-yl)-5-fluoro-2-methylphenyl)-2-fluoro-4-(2-hydroxypropan-2-yl)benzamide]: on CRBN, the activity was half-maximal at 916 nM (AC50). At BTK, the “BTK degradation Amax” value was 15.9% and it took 22.6 nM to reach half-maximal degradation (DC50).
For the compound `Cc1ncc(C(=O)NCCCCCN(C)Cc2ccc(-c3cc4c(-c5cc(F)cc(NC(=O)c6ccc(C(C)(C)O)cc6F)c5C)ncnc4[nH]3)cc2)cc1N1CCC(=O)NC1=O` [Compound 17, 5-(2,4-Dioxotetrahydropyrimidin-1(2H)-yl)-N-(5-((4-(4-(5-fluoro-3-(2-fluoro-4-(2-hydroxypropan-2-yl)benzamido)-2-methylphenyl)-7H-pyrrolo[2,3-d]pyrimidin-6-yl)benzyl)(methyl)amino)pentyl)-6-methylnicotinamide], the AC50 on CRBN was found to be 3550 nM. At BTK, the “BTK degradation Amax” value was 16.6% and the DC50 was determined as 101 nM.
`Cc1ccc(S(=O)(=O)NCCCCCNCc2ccc(-c3cc4c(-c5cc(F)cc(NC(=O)c6ccc(C(C)(C)O)cc6F)c5C)ncnc4[nH]3)cc2)cc1N1CCC(=O)NC1=O` [Compound 18, N-(3-(6-(4-(((5-(3-(2,4-dioxotetrahydropyrimidin-1(2H)-yl)-4-methylphenylsulfonamido)pentyl)amino)methyl)phenyl)-7H-pyrrolo[2,3-d]pyrimidin-4-yl)-5-fluoro-2-methylphenyl)-2-fluoro-4-(2-hydroxypropan-2-yl)benzamide] came in with a half-maximal activity concentration (AC50) at CRBN of 3090 nM. Also, on BTK, the “BTK degradation Amax” value came out at 7.6% and the DC50 was found to be 307 nM.
In the case of `Cc1c(NC(=O)c2ccc(C(C)(C)O)cc2F)cc(F)cc1-c1ncnc2[nH]c(-c3ccc(CNCCCCCCn4cc(-c5cccc(N6CCC(=O)NC6=O)c5)nn4)cc3)cc12` [Compound 19, N-(3-(6-(4-(((6-(4-(3-(2,4-Dioxotetrahydropyrimidin-1(2H)-yl)phenyl)-1H-1,2,3-triazol-1-yl)hexyl)amino)methyl)phenyl)-7H-pyrrolo[2,3-d]pyrimidin-4-yl)-5-fluoro-2-methylphenyl)-2-fluoro-4-(2-hydroxypropan-2-yl)benzamide], the AC50 on CRBN was 104 nM. At BTK, the “BTK degradation Amax” value is listed as 48.2% and the DC50 is 229 nM.
As to `Cc1c(NC(=O)c2ccc(C(C)(C)O)cc2F)cc(F)cc1-c1ncnc2[nH]c(-c3ccc(CN4CCC5(CC4)CN(CCCc4ccc(N6CCC(=O)NC6=O)cc4)CCO5)cc3)cc12` [Compound 20, N-(3-(6-(4-((4-(3-(4-(2,4-Dioxotetrahydropyrimidin-1(2H)-yl)phenyl)propyl)-1-oxa-4,9-diazaspiro[5.5]undecan-9-yl)methyl)phenyl)-7H-pyrrolo[2,3-d]pyrimidin-4-yl)-5-fluoro-2-methylphenyl)-2-fluoro-4-(2-hydroxypropan-2-yl)benzamide], the concentration at half-maximal activity (AC50) on CRBN is greater than 100000 nM. Besides, on BTK, the “BTK degradation Amax” value stood at 37.1% and the DC50 is 27.7 nM.
For `Cc1c(NC(=O)c2ccc(C(C)(C)O)cc2F)cc(F)cc1-c1ncnc2[nH]c(-c3ccc(CN4CCN(C(=O)N5CCN(CCC#Cc6ccc(N7CCC(=O)NC7=O)cc6)CC5)CC4)cc3)cc12` [Compound 23, N-(3-(6-(4-((4-(4-(4-(4-(2,4-Dioxotetrahydropyrimidin-1(2H)-yl)phenyl)but-3-yn-1-yl)piperazine-1-carbonyl)piperazin-1-yl)methyl)phenyl)-7H-pyrrolo[2,3-d]pyrimidin-4-yl)-5-fluoro-2-methylphenyl)-2-fluoro-4-(2-hydroxypropan-2-yl)benzamide], the half-maximal activity concentration (AC50) at CRBN is greater than 50500 nM. Besides, at BTK, the “BTK degradation Amax” value was found to be 9.6% and the DC50 was determined as 2.8 nM.
In turn, `COc1cc(C(=O)N2CCC(OC3CCN(Cc4ccc(-c5cc6c(-c7cc(F)cc(NC(=O)c8ccc(C(C)(C)O)cc8F)c7C)ncnc6[nH]5)cc4)CC3)CC2)ccc1N1CCC(=O)NC1=O` [Compound 24, N-(3-(6-(4-((4-((1-(4-(2,4-Dioxotetrahydropyrimidin-1(2H)-yl)-3-methoxybenzoyl)piperidin-4-yl)oxy)piperidin-1-yl)methyl)phenyl)-7H-pyrrolo[2,3-d]pyrimidin-4-yl)-5-fluoro-2-methylphenyl)-2-fluoro-4-(2-hydroxypropan-2-yl)benzamide] gave an AC50 on CRBN of 5190 nM. On BTK, the “BTK degradation Amax” value was 55.7% and the DC50 was found to be 24 nM.
